Source: ChEMBL document CHEMBL4613209, “Quinolone hybrids and their anti-cancer activities: An overview” (Eur J Med Chem, 2019)
One block for each compound: values may come before it.

Legend:
Hep 3B2 [1] = assay: Anticancer activity against human Hep3B cells after 48 to 72 hrs by MTT assay; type: functional, cell-based
K562 [2] = assay: Anticancer activity against human K562 cells after 48 to 72 hrs by MTT assay; type: functional, cell-based
HL-60 [3] = assay: Antiproliferative activity against human HL60 cells after 72 hrs by MTT assay; type: functional, cell-based; conditions: HL-60, 72 h
HeLa [4] = assay: Antiproliferative activity against human HeLa cells after 72 hrs by MTT assay; type: functional, cell-based
A549 [5] = assay: Antiproliferative activity against human A549 cells after 72 hrs by MTT assay; type: functional, cell-based; conditions: A549, 72 h
SW1990 = assay: Cytotoxicity against human SW1990 cells assessed as reduction in cell viability by MTT assay; type: functional, cell-based
SMMC-7721 [6] = assay: Cytotoxicity against human SMMC7721 cells assessed as reduction in cell viability by MTT assay; type: functional, cell-based
HUVEC = assay: Cytotoxicity against human HUVEC cells assessed as reduction in cell viability by MTT assay; type: cell-based
HeLa [7] = assay: Cytotoxicity against human HeLa cells assessed as reduction in cell viability after 24 to 72 hrs by MTT assay; type: functional, cell-based
L1210 [8] = assay: Cytotoxicity against mouse L1210 cells assessed as reduction in cell viability after 24 to 72 hrs by MTT assay; type: functional, cell-based
SW480 = assay: Cytotoxicity against human SW480 cells assessed as reduction in cell viability by MTT assay; type: functional, cell-based
MCF7 [9] = assay: Potency index, ratio of IC50 for etoposide to IC50 for test compound for cytotoxicity against human MCF7 cells assessed as reduction in cell viability after 72 hrs by MTT assay; type: functional
A-431 = assay: Cytotoxicity against human A431 cells assessed as reduction in cell viability by MTT assay; type: functional, cell-based
MCF7 [10] = assay: Cytotoxicity against human MCF7 cells assessed as reduction in cell viability by MTT assay; type: functional, cell-based
EJ = assay: Cytotoxicity against human EJ cells assessed as reduction in cell viability by MTT assay; type: functional, cell-based
SK-MEL3 = assay: Cytotoxicity against human SK-MEL-3 cells assessed as reduction in cell viability by MTT assay; type: functional, cell-based
MCF7 [11] = assay: Cytotoxicity against human MCF7 cells assessed as reduction in cell viability after 72 hrs by MTT assay; type: functional, cell-based; conditions: MCF7, 72 h
A549 [12] = assay: Anticancer activity against human A549 cells by MTT assay; type: functional, cell-based
HepG2 = assay: Anticancer activity against human HepG2 cells by MTT assay; type: functional, cell-based
HL-60 [13] = assay: Anticancer activity against human HL60 cells by MTT assay; type: functional, cell-based
HT-29 = assay: Anticancer activity against human HT-29 cells by MTT assay; type: functional, cell-based
HeLa [14] = assay: Anticancer activity against human HeLa cells by MTT assay; type: functional, cell-based
HL-60 [15] = assay: Cytotoxicity against human HL60 cells assessed as reduction in cell viability by MTT assay; type: functional, cell-based
L1210 [16] = assay: Cytotoxicity against mouse L1210 cells assessed as reduction in cell viability by MTT assay; type: functional, cell-based
CHO = assay: Cytotoxicity against CHO cells assessed as reduction in cell viability by MTT assay; type: cell-based; conditions: Cricetulus griseus
K562 [17] = assay: Anticancer activity against human K562 cells; type: functional, cell-based
Caspase-3 = Caspase-3 (Homo sapiens, UniProt P42574); assay: Activation of caspase 3 in human SMMC7721 cells; type: cell-based, SMMC-7721
Sequence of Caspase-3 (P42574 29-175 limits assumed): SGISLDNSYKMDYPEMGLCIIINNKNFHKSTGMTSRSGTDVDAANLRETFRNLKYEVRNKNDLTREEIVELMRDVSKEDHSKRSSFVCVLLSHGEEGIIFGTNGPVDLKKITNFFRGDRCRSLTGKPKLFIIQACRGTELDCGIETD
Sequence of Caspase-3 (P42574 176-277 limits assumed): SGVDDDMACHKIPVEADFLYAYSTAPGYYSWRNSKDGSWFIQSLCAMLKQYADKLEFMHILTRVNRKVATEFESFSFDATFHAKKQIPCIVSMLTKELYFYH

HL-60 [18] = assay: Antiproliferative activity against human HL60 cells after 24 to 72 hrs by MTT assay; type: functional, cell-based
Apoptosis regulator BAX = Apoptosis regulator BAX (Homo sapiens, UniProt Q07812); assay: Activation of Bax in human SMMC7721 cells; type: cell-based, SMMC-7721
Sequence of Apoptosis regulator BAX (Q07812 whole entry): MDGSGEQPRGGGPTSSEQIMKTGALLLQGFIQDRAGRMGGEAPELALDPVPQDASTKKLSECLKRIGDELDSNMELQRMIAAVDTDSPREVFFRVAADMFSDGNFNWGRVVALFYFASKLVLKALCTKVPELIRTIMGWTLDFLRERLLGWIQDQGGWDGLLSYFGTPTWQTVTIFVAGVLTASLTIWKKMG

Hep 3B2 [19] = assay: Antiproliferative activity against human Hep3B cells after 24 to 72 hrs by MTT assay; type: functional, cell-based
SMMC-7721 [20] = assay: Antiproliferative activity against human SMMC7721 cells after 24 to 72 hrs by MTT assay; type: functional, cell-based
[21] = molecular target: Cellular tumor antigen p53 (Homo sapiens, UniProt P04637); assay: Activation of p53 in human SMMC7721 cells; type: cell-based, SMMC-7721
Sequence of Cellular tumor antigen p53 (P04637 whole entry): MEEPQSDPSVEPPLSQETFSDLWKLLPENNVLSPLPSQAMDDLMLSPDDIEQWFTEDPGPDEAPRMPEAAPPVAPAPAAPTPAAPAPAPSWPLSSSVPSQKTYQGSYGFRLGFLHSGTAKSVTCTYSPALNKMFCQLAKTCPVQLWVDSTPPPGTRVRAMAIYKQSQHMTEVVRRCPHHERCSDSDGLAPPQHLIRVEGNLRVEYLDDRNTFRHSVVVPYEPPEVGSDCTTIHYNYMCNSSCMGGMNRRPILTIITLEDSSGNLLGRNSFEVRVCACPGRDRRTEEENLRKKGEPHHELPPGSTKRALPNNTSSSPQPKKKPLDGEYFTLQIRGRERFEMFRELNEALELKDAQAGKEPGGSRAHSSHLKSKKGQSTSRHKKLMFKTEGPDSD

L1210 [22] = assay: Antiproliferative activity against mouse L1210 cells after 24 to 72 hrs by MTT assay; type: functional, cell-based
Caspase-9 = Caspase-9 (Homo sapiens, UniProt P55211); assay: Activation of caspase 9 in human SMMC7721 cells; type: cell-based, SMMC-7721
Sequence of Caspase-9 (P55211 1-315 limits assumed): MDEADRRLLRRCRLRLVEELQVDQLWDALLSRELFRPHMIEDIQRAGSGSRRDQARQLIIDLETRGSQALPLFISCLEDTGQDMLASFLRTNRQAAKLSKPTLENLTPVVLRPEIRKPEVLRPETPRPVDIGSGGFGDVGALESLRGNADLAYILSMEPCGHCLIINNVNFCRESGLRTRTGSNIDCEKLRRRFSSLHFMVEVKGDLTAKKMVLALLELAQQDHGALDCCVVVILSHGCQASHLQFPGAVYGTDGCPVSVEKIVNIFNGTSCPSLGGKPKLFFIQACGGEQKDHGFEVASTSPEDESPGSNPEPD
Sequence of Caspase-9 (P55211 331-416 limits assumed): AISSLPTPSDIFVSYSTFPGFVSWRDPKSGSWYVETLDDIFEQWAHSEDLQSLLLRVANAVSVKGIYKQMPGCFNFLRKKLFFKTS

SiHa = assay: Growth inhibition of human SiHa cells after 48 hrs by SRB assay; type: functional
PANC-1 = assay: Growth inhibition of human PANC1 cells after 48 hrs by SRB assay; type: functional; conditions: PANC-1, 48 h
MDA-MB-231 = assay: Growth inhibition of human MDA-MB-231 cells after 48 hrs by SRB assay; type: functional; conditions: MDA-MB-231, 48 h
Hep 3B2 [23] = assay: Cytotoxicity against human Hep3B cells assessed as reduction in cell viability; type: functional, cell-based
HL-60 [24] = assay: Potency index, ratio of IC50 for doxorubicin to IC50 for test compound for cytotoxicity against human HL60 cells assessed as reduction in cell viability; type: functional
CAPAN-1 [25] = assay: Potency index, ratio of IC50 for doxorubicin to IC50 for test compound for cytotoxicity against human Capan1 cells assessed as reduction in cell viability; type: functional
HL-60 [26] = assay: Cytotoxicity against human HL60 cells assessed as reduction in cell viability; type: functional, cell-based
CAPAN-1 [27] = assay: Cytotoxicity against human Capan1 cells assessed as reduction in cell viability; type: functional, cell-based
Hep 3B2 [28] = assay: Potency index, ratio of IC50 for doxorubicin to IC50 for test compound for cytotoxicity against human Hep3B cells assessed as reduction in cell viability; type: functional
HT-1080 = assay: Cytotoxicity against human HT1080 cells assessed as reduction in cell viability; type: functional, cell-based
Jurkat = assay: Anticancer activity against human Jurkat cells after 48 to 72 hrs by MTT assay; type: functional, cell-based
HCT-116 = assay: Anticancer activity against human HCT116 cells after 48 to 72 hrs by MTT assay; type: functional, cell-based
SMMC-7721 [29] = assay: Anticancer activity against human SMMC7721 cells after 48 to 72 hrs by MTT assay; type: functional, cell-based

SMILES: COc1ccc2cc3[n+](cc2c1OC)CCc1cc2c(cc1-3)OCO2 [BERBERINE]
IC50 (SW1990): 18.3 to 65.6 µM
IC50 (SMMC-7721 [6]): 18.3 to 65.6 µM
IC50 (HUVEC): 18.3 to 65.6 µM

SMILES: CCOC(=O)c1cn(CC)c2c(ccc3n[se]nc32)c1=O
IC50 (HeLa [7]): ≤ 100 µM
IC50 (L1210 [8]): ≤ 100 µM

SMILES: CCn1cc(C(=O)O)c(=O)c2cc(F)c(N3CCN(C/C(=N/OC)c4ccc(Cl)s4)CC3)cc21
IC50 (SW480): ≤ 20 µM
Ratio IC50 (MCF7 [9]): 4.64
IC50 (A-431): ≤ 20 µM
IC50 (MCF7 [10]): ≤ 20 µM
IC50 (EJ): ≤ 20 µM
IC50 (SK-MEL3): ≤ 20 µM
IC50 (MCF7 [11]): 2.5 to 5 µM

SMILES: COc1ccc(-c2nnc(CSc3nnc(-c4cn(C5CC5)c5cc(N6CCN(C)CC6)c(F)cc5c4=O)o3)o2)cc1
IC50 (HL-60 [15]): 1.1 to 2.8 µM
IC50 (L1210 [16]): 1.1 to 2.8 µM
IC50 (SMMC-7721 [6]): 1.1 to 2.8 µM
IC50 (CHO): 1.1 to 2.8 µM

SMILES: O=C(N/N=C/c1ccc2c(c1)OCO2)c1cn(C2CC2)c2cc(N3CCNCC3)c(F)cc2c1=O
IC50 (Caspase-3): 3 to 7.39 µM
IC50 (HL-60 [18]): 1.4 to 52.3 µM
IC50 (Apoptosis regulator BAX): 3 to 7.39 µM
IC50 (Hep 3B2 [19]): 1.4 to 52.3 µM
IC50 (SMMC-7721 [20]): 1.4 to 52.3 µM
IC50 [21]: 3 to 7.39 µM
IC50 (L1210 [22]): 1.4 to 52.3 µM
IC50 (Caspase-9): 3 to 7.39 µM

SMILES: CCn1cc(C(=O)O)c(=O)c2cnc(N3CCN(C(=O)CCSc4nnnn4-c4ccc(Br)cc4)CC3)nc21
GI50 (SiHa): 0.08 µM
GI50 (PANC-1): 0.07 µM
GI50 (MDA-MB-231): 0.22 µM

SMILES: CN1CCN(c2cc3c(cc2F)c(=O)c(-c2nc4s/c(=C\c5ccc(S(N)(=O)=O)cc5)c(=O)n4n2)cn3C2CC2)CC1
IC50 (Hep 3B2 [23]): 0.7 µM
Ratio IC50 (HL-60 [24]): 2.3 - 5.6
Ratio IC50 (CAPAN-1 [25]): 2.3 - 5.6
IC50 (HL-60 [26]): 1.5 µM
IC50 (CAPAN-1 [27]): 0.3 µM
Ratio IC50 (Hep 3B2 [28]): 2.3 - 5.6

SMILES: CC[C@H](CC[C@@H](C)[C@H]1CC[C@H]2[C@@H]3CC=C4C[C@@H](O)CC[C@]4(C)[C@H]3CC[C@]12C)C(C)C [BETA-SITOSTEROL]
IC50 (HT-1080): 2.5 to 15.7 µM

Continued, in another order:

IC50 (K562 [2]): < 10 µg/mL
SMILES: C/C(=N\Nc1ccccc1)c1c(O)c2ccccc2n(-c2ccccc2)c1=O
IC50 (Hep 3B2 [1]): < 10 µg/mL

IC50 (HL-60 [3]): 0.018 µM
IC50 (HeLa [4]): 0.01 µM
IC50 (A549 [5]): 0.028 µM
SMILES: N=C(NS(=O)(=O)c1cccc(C(F)(F)F)c1)N1CCN(c2cc3c(cc2F)c(=O)c(C(=O)O)cn3-c2ccc(F)cc2F)CC1

IC50 (A549 [12]): 13.1 to 70.2 µM
IC50 (HepG2): 13.1 to 70.2 µM
IC50 (HL-60 [13]): 13.1 to 70.2 µM
IC50 (HT-29): 13.1 to 70.2 µM
IC50 (HeLa [14]): 13.1 to 70.2 µM
SMILES: CCOC(=O)c1cn(Cc2cn(-c3ccc(Cl)cc3)nn2)c2ccc(F)cc2c1=O

IC50 (K562 [17]): 64.1 µM
SMILES: NC(=O)c1cn([C@@H]2O[C@H](CO)[C@@H](O)[C@H]2O)c2ccc(Nc3ccccc3)cc2c1=O

IC50 (Jurkat): < 50 µM
IC50 (HCT-116): < 50 µM
IC50 (SMMC-7721 [29]): < 50 µM
SMILES: COc1cc(/C=N/n2c(SCc3ccccc3)nnc2-c2cn(C3CC3)c3cc(N4CCNCC4)c(F)cc3c2=O)cc(OC)c1OC
